From patent US20240400554A1, “MONOACYLGLYCEROL LIPASE (MAGL) INHIBITORS FOR THE TREATMENT OF PAIN AND RELATED MEDICAL DISORDERS” (Humanwell Pharmaceutical US, Inc., priority 2023, published 2024)

Experiments:
[1] = tested on: 2% formalin model in SD rats; test: Formalin-induced pain model; format: in vivo; conditions: 3 mg/kg p.o.
Experimental: A diluted formalin solution is injected subcutaneously into the hind paw of rats using a microsyringe, creating a continuous noxious stimulus that induces spontaneous pain behaviors in the animals. The experiment can record the number of lifts and licks of the rat's foot through an autonomous movement analyzer to assess the degree of pain. This experiment uses a 2% formalin model in SD rats and tests the analgesic activity of compounds by oral administration. After injecting 2% formalin, the number of movements (lifts and licks of the injected foot) from 0-60 min after injecting the formalin solution is recorded and analyzed.
The Maximum Possible Effect (MPE %) is calculated as a percentage:
Note: (1) MPE % for each group is calculated with sham group MPE=100% and vehicle group MPE=0% as standards. (2) Movement counts of the sham group are subtracted to exclude the impact of background noise on the experiment. (2) “Sham” represents the average value of the sham group; “Vehicle-Sham” represents the average value of the vehicle group minus the sham group.
Results are presented as mean values with standard error. Data from each group are analyzed and graphed using GraphPad Prism 8 software. Statistical analysis is conducted using one-way ANOVA to determine statistical differences between groups, with t-tests used for comparisons between two groups. A p-value <0.05 is considered statistically significant.

[2] = target: T1, human recombinant MAGL (monoacylglycerol lipase) (Homo sapiens, UniProt Q99685); test: In vitro MAGL enzyme inhibition assay (Cayman Monoacylglycerol Lipase Inhibitor Screening Assay, 4-nitrophenylacetate hydrolysis); format: biochemical; conditions: 4-nitrophenylacetate substrate, 15 min preincubation, absorbance 405-415 nm
T1 construct: purchased Cayman Chemical Item No. 705192
T1 sequence (Q99685 1-303): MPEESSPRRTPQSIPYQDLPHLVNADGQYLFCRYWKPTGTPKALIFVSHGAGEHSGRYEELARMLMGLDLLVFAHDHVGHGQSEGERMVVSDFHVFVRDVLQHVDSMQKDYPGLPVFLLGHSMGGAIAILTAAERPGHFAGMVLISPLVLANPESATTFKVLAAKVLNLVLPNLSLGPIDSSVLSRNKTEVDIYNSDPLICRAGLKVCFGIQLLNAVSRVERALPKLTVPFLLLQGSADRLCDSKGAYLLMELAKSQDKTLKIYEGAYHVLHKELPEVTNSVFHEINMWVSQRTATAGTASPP
Experimental: Monoacylglycerol Lipase Inhibitor Screening Assay provides a convenient method for screening human MAGL inhibitors.
Dilute 3 ml of MAGL Assay Buffer (10×) concentrate with 27 ml of ultrapure water. This final 1× Assay Buffer (10 mM Tris-HCl, pH 7.2, containing 1 mM EDTA) should be used in the assay and for the dilution of MAGL enzyme, substrate, and MAGL inhibitor. The 1× Assay Buffer is stable for at least six months if stored at −20° C.
The vial contains 0.5 ml of 17 mM ethanolic solution of 4-nitrophenylacetate. Mix 150 μL of this solution with 450 μl of 1× Assay Buffer prior to testing. This is enough substrate to assay 50 wells. Dilute additional substrate if using the entire plate.
This vial contains 100 μl of a solution of human recombinant MAGL (monoacylglycerol lipase). The thawed enzyme should be stored on ice. Dilute 30 μl of enzyme with 570 μl of 1×MAGL Assay Buffer. This is enough enzyme to assay 50 wells. Dilute additional enzyme if using the entire plate. The diluted enzyme is stable for four hours on ice.
This vial contains 20 nmol of inhibitor. Resuspend in 125 μl of DMSO, then add 125 μl of 1× Assay Buffer and vortex to make an 80 μM stock.
1). 100% Initial Activity Wells—add 150 μl of 1× Assay Buffer, 10 μl of MAGL enzyme, and 10 μl of solvent (same solvent used to dissolve the inhibitor) to three wells.
2). Background Wells—add 160 μl of 1× Assay Buffer and 10 μl of solvent (same solvent used to dissolve the inhibitor) to three wells.
3). Inhibitor/Positive Control Wells—add 150 μl of 1× Assay Buffer, 10 μl of MAGL enzyme, and 10 μl of inhibitor* or positive control inhibitor to the inhibitor wells.
4). Mix the contents of the wells by pipetting gently up and down and incubate for 15 minutes at room temperature. The incubation time for different inhibitors may vary and will need to be optimized by the user.
5). Initiate the reactions by adding 10 μl of MAGL Substrate to all the wells being used. Carefully shake the 96-well plate for 10 seconds to mix and cover with the plate cover. Incubate for ten minutes at room temperature.
6). […] (Tecan Spark 10M Multimode Plate Reader)
1). Determine the average absorbance of each sample.
2). Subtract the average absorbance of the background wells from the average absorbance of the 100% initial activity and the inhibitor wells.
3). Determine the percent inhibition or percent activity for each inhibitor using one of the following equations: […]

In the case of `O=C(OC(CO)C(F)(F)F)N1CCC(c2nn3c(c2C2CC2)CCc2cc(F)ccc2-3)CC1` (stereo not drawn) [Compound 40, 1,1,1-trifluoro-3-hydroxypropan-2-yl 4-(3-cyclopropyl-7-fluoro-4,5-dihydropyrazolo[1,5-a]quinolin-2-yl)piperidine-1-carboxylate], the “Experimental Results (analgesic activity in the formalin model)” value [1] was “effective”, the inhibition in vivo at 3 mg/kg ([1]; Rattus norvegicus, po, 1 h, movements (lifts and licks) 0-60 min after formalin, read-out: MPE % (Maximum Possible Effect)) was 41% and the IC50 [2] was 18.8 nM.
